From patent publication US5026848A, “Novel generation of heteroaryloxyalkyl heterocycles with antipicornaviruses activities” (Synphar Laboratories Incorporated, priority 1988, dated 1991)
≈ marks a conversion by molar mass, not a printed value. Where two headings read alike, the source gives them in different places.

Tests used:
[1] = test system: Rhinovirus 30; assay: Anti-rhinovirus activity, cytopathic effect inhibition / neutral red dye uptake, type 30; format: cell-based; conditions: Enterovirus, WI-38; Table II; read-out: MIC 50 Rhinovirus Type 30
[2] = test system: Rhinovirus 88; assay: Anti-rhinovirus activity, cytopathic effect inhibition / neutral red dye uptake, type 88; format: cell-based; conditions: Enterovirus, WI-38; Table II; read-out: MIC 50 Rhinovirus Type 88
[3] = test system: Rhinovirus 23; assay: Anti-rhinovirus activity, cytopathic effect inhibition / neutral red dye uptake, type 23; format: cell-based; conditions: Enterovirus, WI-38; Table II; read-out: MIC 50 Rhinovirus Type 23
[4] = test system: Rhinovirus 15; assay: Anti-rhinovirus activity, cytopathic effect inhibition / neutral red dye uptake, type 15; format: cell-based; conditions: Enterovirus, WI-38; Table II; one of seven commonest serotypes; read-out: MIC 50 Rhinovirus Type 15
[5] = test system: Rhinovirus 17; assay: Anti-rhinovirus activity, cytopathic effect inhibition / neutral red dye uptake, type 17; format: cell-based; conditions: Enterovirus, WI-38; Table II; read-out: MIC 50 Rhinovirus Type 17
[6] = test system: Coxsacki-A9; assay: Activity against other picornaviruses, Coxsacki-A9; format: cell-based; conditions: Enterovirus, read-out: MIC 50 Cox. A9
[7] = test system: Coxsacki-B1; assay: Activity against other picornaviruses, Coxsacki-B1; format: cell-based; conditions: Enterovirus, read-out: MIC 50 Cox. B1
[8] = test system: 20 serotypes of rhinovirus; assay: Anti-rhinovirus activity against a panel of 20 serotypes; conditions: Table II; numerator; denominator 20, but 10 for compound 8 and 6 for compound 30
[9] = test system: Enterovirus serotypes; format: cell-based; conditions: for All Enterovirus Serotypes (number of serotypes active / tested): Table III, numerator, denominator 7, but 5 for compound 8
[10] = test system: Echo-11; assay: Activity against other picornaviruses, Echo-11; format: cell-based; conditions: Enterovirus, read-out: MIC 50 Echo 11
[11] = test system: Rhinovirus 63; assay: Anti-rhinovirus activity, cytopathic effect inhibition / neutral red dye uptake, type 63; format: cell-based; conditions: Enterovirus, WI-38; Table II; read-out: MIC 50 Rhinovirus Type 63
[12] = test system: Coxsacki-A21; assay: Activity against other picornaviruses, Coxsacki-A21; format: cell-based; conditions: Enterovirus, read-out: MIC 50 Cox. A21
[13] = test system: Echo-7; assay: Activity against other picornaviruses, Echo-7; format: cell-based; conditions: Enterovirus, read-out: MIC 50 Echo 7
[14] = test system: Rhinovirus 29; assay: Anti-rhinovirus activity, cytopathic effect inhibition / neutral red dye uptake, type 29; format: cell-based; conditions: Enterovirus, WI-38; Table II; one of seven commonest serotypes; read-out: MIC 50 Rhinovirus Type 29
[15] = test system: Rhinovirus 36; assay: Anti-rhinovirus activity, cytopathic effect inhibition / neutral red dye uptake, type 36; format: cell-based; conditions: Enterovirus, WI-38; Table II; read-out: MIC 50 Rhinovirus Type 36
[16] = test system: WI38 cells; assay: Toxicity to WI38 cells (change in morphology in / growth inhibition of 25% of the cells); format: cell-based
[17] = test system: HRV-1A and HRV-39; assay: Anti-rhinovirus activity against HRV-1A and HRV-39; conditions: in words
[18] = test system: Coxsacki-B4; assay: Activity against other picornaviruses, Coxsacki-B4; format: cell-based; conditions: Enterovirus, read-out: MIC 50 Cox. B4
[19] = test system: Rhinovirus 2; assay: Anti-rhinovirus activity, cytopathic effect inhibition / neutral red dye uptake, type 2; format: cell-based; conditions: Enterovirus, WI-38; Table II; one of seven commonest serotypes; read-out: MIC 50 Rhinovirus Type 2
[20] = test system: Rhinovirus 4; assay: Anti-rhinovirus activity, cytopathic effect inhibition / neutral red dye uptake, type 4; format: cell-based; conditions: Enterovirus, WI-38; Table II; one of seven commonest serotypes; read-out: MIC 50 Rhinovirus Type 4
[21] = test system: Rhinovirus 49; assay: Anti-rhinovirus activity, cytopathic effect inhibition / neutral red dye uptake, type 49; format: cell-based; conditions: Enterovirus, WI-38; Table II; read-out: MIC 50 Rhinovirus Type 49
[22] = test system: Rhinovirus 1A; assay: Anti-rhinovirus activity, cytopathic effect inhibition / neutral red dye uptake, type 1A; format: cell-based; conditions: Enterovirus, WI-38; Table I; WI38 cells, 33° C., 3-4 days; NA = Not active; read-out: MIC50 Rhinovirus 1A
[23] = test system: Rhinovirus 32; assay: Anti-rhinovirus activity, cytopathic effect inhibition / neutral red dye uptake, type 32; format: cell-based; conditions: Enterovirus, WI-38; Table II; read-out: MIC 50 Rhinovirus Type 32
[24] = test system: Rhinovirus 1B; assay: Anti-rhinovirus activity, cytopathic effect inhibition / neutral red dye uptake, type 1B; format: cell-based; conditions: Enterovirus, WI-38; Table II; one of seven commonest serotypes; read-out: MIC 50 Rhinovirus Type 1B
[25] = test system: Polio 1; assay: microbe, parasite or virus in culture; format: cell-based; conditions: Enterovirus, read-out: MIC 50 Polio 1
[26] = test system: Rhinovirus 56; assay: Anti-rhinovirus activity, cytopathic effect inhibition / neutral red dye uptake, type 56; format: cell-based; conditions: Enterovirus, WI-38; Table II; read-out: MIC 50 Rhinovirus Type 56
[27] = test system: Rhinovirus 44; assay: Anti-rhinovirus activity, cytopathic effect inhibition / neutral red dye uptake, type 44; format: cell-based; conditions: Enterovirus, WI-38; Table II; read-out: MIC 50 Rhinovirus Type 44
[28] = test system: Rhinovirus 39; assay: Anti-rhinovirus activity, cytopathic effect inhibition / neutral red dye uptake, type 39; format: cell-based; conditions: Enterovirus, WI-38
[29] = test system: Rhinovirus 86; assay: Anti-rhinovirus activity, cytopathic effect inhibition / neutral red dye uptake, type 86; format: cell-based; conditions: Enterovirus, WI-38; Table II; read-out: MIC 50 Rhinovirus Type 86
[30] = test system: Rhinovirus 31; assay: Anti-rhinovirus activity, cytopathic effect inhibition / neutral red dye uptake, type 31; format: cell-based; conditions: Enterovirus, WI-38; Table II; one of seven commonest serotypes; read-out: MIC 50 Rhinovirus Type 31
[31] = test system: Rhinovirus 53; assay: Anti-rhinovirus activity, cytopathic effect inhibition / neutral red dye uptake, type 53; format: cell-based; conditions: Enterovirus, WI-38; Table II; read-out: MIC 50 Rhinovirus Type 53
[32] = Table I, concentration with change in morphology in 25% of WI38 cells
[33] = Table I, WI38 cells, 33° C., 3-4 days, read-out: MIC50 Rhinovirus 39

Compound `Cc1cc(CCCCCCCOc2cc(C)nc3ccccc23)on1` [Compound 9, 5-[7-(2-methylquinolin-4-yl)oxyheptyl]-3-methisoxazole] has an IC50 [1] of 0.5 µg/mL (≈ 1.48 µM), an EC50 [2] of less than 0.5 µg/mL and an IC50 [3] of 5 µg/mL (≈ 14.8 µM). It also gave an IC50 [4] of 5 µg/mL (≈ 14.8 µM), an IC50 [5] greater than 25 µg/mL and an EC50 [6] greater than 25 µg/mL. The IC50 [7] was greater than 25 µg/mL, the “All Rhinovirus Serotypes (number of serotypes active / tested)” value [8] was 19 and the “inhibitory activity against the members of the Entero virus family” value [9] was “remarkable inhibitory activity”. The “All Enterovirus Serotypes (number of serotypes active / tested)” value [9] was 2, the IC50 [10] was greater than 25 µg/mL and the EC50 [11] was 5 µg/mL (≈ 14.8 µM). For the same compound, the IC50 [12] was 10 µg/mL (≈ 29.5 µM), the IC50 [13] was greater than 25 µg/mL and the IC50 [14] was 5 µg/mL (≈ 14.8 µM). The EC50 [15] was 10 µg/mL (≈ 29.5 µM), the Toxicity [16, 32] was 50 µg/mL and the Toxicity ([16]; Table II) was 50 µg/mL. For the same compound, the Toxicity ([16]; Table III) was 50 µg/mL, the “inhibitory activity against HRV-1A and HRV-39 in vitro” value [17] was “remarkably inhibitory activity” and the IC50 [18] was 10 µg/mL (≈ 29.5 µM). For the same compound, the IC50 [19] was 1 µg/mL (≈ 2.95 µM), the IC50 [20] was 10 µg/mL (≈ 29.5 µM) and the EC50 [21] was 10 µg/mL (≈ 29.5 µM). It also gave an EC50 [22] of 5 µg/mL (≈ 14.8 µM), an EC50 [23] of 10 µg/mL (≈ 29.5 µM) and an IC50 [24] of 10 µg/mL (≈ 29.5 µM). It also gave an EC50 [25] greater than 25 µg/mL, an EC50 [26] of 5 µg/mL (≈ 14.8 µM) and an EC50 [27] of 1 µg/mL (≈ 2.95 µM). For the same compound, the EC50 [28, 33] was 1 µg/mL (≈ 2.95 µM), the EC50 ([28]; Table II, read-out: MIC 50 Rhinovirus Type 39) was 5 µg/mL (≈ 14.8 µM) and the EC50 [29] was 5 µg/mL (≈ 14.8 µM). For the same compound, the EC50 [30] was 1 µg/mL (≈ 2.95 µM) and the EC50 [31] was 5 µg/mL (≈ 14.8 µM).
`Cc1cc(CCCCCCCOc2ccc3oc4ccccc4c3c2)on1` [Compound 5] was tested, and the IC50 [1] was 0.5 µg/mL (≈ 1.38 µM), the EC50 [2] was 0.5 µg/mL (≈ 1.38 µM) and the IC50 [3] was 5 µg/mL (≈ 13.8 µM). It also gave an IC50 [4] of 5 µg/mL (≈ 13.8 µM), an IC50 [5] of 10 µg/mL (≈ 27.5 µM) and an EC50 [6] of 5 µg/mL (≈ 13.8 µM). For the same compound, the IC50 [7] was 10 µg/mL (≈ 27.5 µM), the “All Rhinovirus Serotypes (number of serotypes active / tested)” value [8] was 17 and the “inhibitory activity against the members of the Entero virus family” value [9] was “remarkable inhibitory activity”. For the same compound, the “All Enterovirus Serotypes (number of serotypes active / tested)” value [9] was 5, the IC50 [10] was greater than 25 µg/mL and the EC50 [11] was 10 µg/mL (≈ 27.5 µM). For the same compound, the IC50 [12] was 5 µg/mL (≈ 13.8 µM), the IC50 [13] was 25 µg/mL (≈ 68.8 µM) and the IC50 [14] was 5 µg/mL (≈ 13.8 µM). It also gave an EC50 [15] greater than 25 µg/mL, a Toxicity [16, 32] of 100 µg/mL and a Toxicity ([16]; Table II) of 100 µg/mL. For the same compound, the Toxicity ([16]; Table III) was 100 µg/mL, the “inhibitory activity against HRV-1A and HRV-39 in vitro” value [17] was “remarkably inhibitory activity” and the IC50 [18] was greater than 25 µg/mL. The IC50 [19] was greater than 25 µg/mL, the IC50 [20] was less than 0.5 µg/mL and the EC50 [21] was greater than 25 µg/mL. For the same compound, the EC50 [22] was 5 µg/mL (≈ 13.8 µM), the EC50 [23] was 25 µg/mL (≈ 68.8 µM) and the IC50 [24] was 5 µg/mL (≈ 13.8 µM). The EC50 [25] was 10 µg/mL (≈ 27.5 µM), the EC50 [26] was 5 µg/mL (≈ 13.8 µM) and the EC50 [27] was less than 0.5 µg/mL. The EC50 [28, 33] was 1 µg/mL (≈ 2.75 µM), the EC50 [29] was 0.5 µg/mL (≈ 1.38 µM) and the EC50 [30] was 10 µg/mL (≈ 27.5 µM). The EC50 [31] was 10 µg/mL (≈ 27.5 µM).
